The test system of one experiment is GABAB nonsel. As to the kind of experiment: radioligand binding inhibition assay. To be noted: rat, 100 μM. How it is done: Nonspecific AMPA, kainate and NMDA binding assays were performed by Eurofins Discovery (Cerep) using rat cerebral cortex membranes and radiolabeled [^3H]AMPA, [^3H]kainic acid and [^3H]CGP 39653, respectively. All compounds were tested at a single concentration of 100 uM in triplicate. mGluR1, mGluR2, mGluR5 and GABAB binding assays were performed by Eurofins Discovery. mGluR1 assay was performed using rat cerebellum membranes and radiolabeled [^3H]quisqalic acid. mGluR2 assay was performed using recombinant Chem-1 cells and [^3H]LY341495. mGluR5 and GABAB binding assays were performed using recombinant CHO-K1 cells and […], respectively. All compounds were tested at a single concentration of 100 uM in triplicate.

In the next experiment the target is T1, GABAA α3β1γ2 (Homo sapiens, UniProt P18505+P18507+P34903).
T1 construct: host or cells: HEK 293 (stably expressing)
As to the kind of experiment: FLIPR functional assay, HEK 293 cells (agonist/PAM/antagonist). To be noted: top concentration 1 mM, read-out: EC50, functional agonist receptor assay. The class given is cell-based. How it is done:
(§1) Functional assays of all GABAA, NMDA (GluN2A-GluN2D) and AMPA (GluA2) receptor subunits were performed by SB Drug Discovery as a part of their CNS discovery panel using FLIPR technology. Briefly, receptor-expressing HEK 293 cell lines were incubated in a red membrane potential dye in HEPES:HBSS pH 7.4 buffer and the fluorescence (λex: 488, λex: 510-570) was monitored over time as the test compounds and/or reference compounds were added to the solution. In agonist assay, only test compounds were added. In positive allosteric modulator assay, cells were preincubated with test compounds and then low concentration (approximately EC20) of an appropriate agonist was added. In antagonist assay, cells were preincubated with test compounds and then high concentration (approximately EC80) of an appropriate agonist was added. For GABAA assays, GABA was used as the agonist, picrotoxin was used as the reference antagonist and allopregnanolone was used as the reference positive allosteric modulator (PAM). For NMDA assays, a mixture of glutamate, glycine and CaCl2 was used as the agonist, MK801 was the reference antagonist and pregnenolone sulfate or GNE 9278 were used as reference PAMs. For AMPA assays, glutamate was used as the agonist, CNQX was the reference antagonist and cyclothiazide was used as the reference PAM. All compounds were tested at 7 concentration points in triplicate and EC50/IC50 was determined where applicable. Functional GABAB assay was performed by Eurofins Discovery (Cerep) using Ca^2+-dependent fluorimetry in RBL cells expressing human GABAB (B1/B2) receptor. All compounds were tested at a single concentration of 100 uM in triplicate.
(§2) All receptor assays were performed exactly as described in Example 1. Functional assays of all GABAA, NMDA (GluN2A-GluN2D) and AMPA (GluA2) receptor subunits were performed by SB Drug Discovery as a part of their CNS discovery panel using FLIPR technology. All compounds were tested at 7 concentrations in triplicate and EC50/IC50 was determined where applicable. Functional GABAB assay was performed by Eurofins Discovery (Cerep) using Ca^2+-dependent fluorimetry in RBL cells expressing human GABAB (B1/B2) receptor. All compounds were tested at a single concentration of 100 uM in triplicate. Nonspecific AMPA, kainate and NMDA binding assays were performed by Eurofins Discovery (Cerep) using rat cerebral cortex membranes and radiolabeled [^3H]AMPA, [^3H]kainic acid and [^3H]CGP 39653, respectively. All compounds were tested at a single concentration of 100 uM in triplicate. mGluR1, mGluR2, mGluR5 and GABAB binding assays were performed by Eurofins Discovery. All compounds were tested at a single concentration of 100 uM in triplicate.

Another experiment has as its target T2, GABAA α4β1γ2 (Homo sapiens, UniProt P18505+P18507+P48169).
T2 construct: host or cells: HEK 293 (stably expressing)
Described as above. Format: cell-based. To be noted: top concentration 1 mM, read-out: EC50, functional agonist receptor assay. How it is done:
as §1, §2

Another experiment addresses T3, GABAA α3β3γ2 (Homo sapiens, UniProt P18507+P28472+P34903).
T3 construct: host or cells: HEK 293 (stably expressing)
The description is as above. Format: cell-based. To be noted: top concentration 1 mM; for EC50: read-out: EC50, functional agonist receptor assay. How it is done:
as §1, §2

In another experiment the target is T4, GABAA α2β2γ2 (Homo sapiens, UniProt P18507+P47869+P47870).
T4 construct: host or cells: HEK 293 (stably expressing)
The description is as above. The class given is cell-based. To be noted: top concentration 1 mM, read-out: EC50, functional agonist receptor assay. How it is done:
as §1, §2

The next experiment has as its target T5, GABAA α2β3γ2 (Homo sapiens, UniProt P18507+P28472+P47869).
T5 construct: host or cells: HEK 293 (stably expressing)
The description is as above. Format: cell-based. To be noted: top concentration 1 mM, read-out: EC50, functional agonist receptor assay. How it is done:
as §1, §2

A further experiment concerns the target T6, GABAA α3β2γ2 (Homo sapiens, UniProt P18507+P34903+P47870).
T6 construct: host or cells: HEK 293 (stably expressing)
The experiment is described as above. The class given is cell-based. To be noted: top concentration 1 mM, read-out: EC50, functional agonist receptor assay. How it is done: as §1, §2

Experiment [1] deals with mouse cerebral synaptosomes. As to the kind of experiment: Potassium-induced neurotransmitter release assay. To be noted: preloaded with 100 μM for 15 min at 37° C., high-potassium depolarization. The class given is cell-based. How it is done: To each tube, 2.5 μL of a test compound solution (final concentration 100 μM) in Buffer KRP or Buffer KRP alone were added. Samples were incubated for 15 min at 37° C., briefly chilled on ice, and then immediately centrifuged and washed twice with Buffer KRP. The resulting pellets were then resuspended in either Buffer KRP (500 μL) or Buffer K-KRP (500 μL). Samples were immediately centrifuged or incubated for 5, 10 or 15 min at 37° C., then centrifuged and washed with Buffer KRP. Resulting pellets were resuspended in 400 μL of 60% ACN containing 2.5 μM Glu-d5 and 2.5 μM Gln-d5 as internal standards.
Synaptosome uptake and high potassium-induced release assays were performed as described in Example 1. Uptake assays used 250 μL aliquots of the synaptosome suspension transferred to a pre-chilled 0.8 mL 96 well plate. 5 μL of a test compound solution (0.5 mM; final concentration: 10 μM to compare directly to our previous work was added to each well and incubated at 0° C. or 37° C. After 10, 20 or 30 min, samples were chilled on ice and immediately sedimented (2,500 g for 15 min at 4° C.) and washed with Buffer S (0.5 mL, ×2). Resulting pellets were resuspended in 200 μL of 60% ACN containing 5 μM GABA-d6 and stored at −80° C. until analysis. Potassium-induced release assay used 500 μL aliquots of the synaptosome suspension transferred to pre-chilled microcentrifuge tubes. 2.5 μL of a test compound solution (20 mM; final concentration: 100 μM) in Buffer KRP was added to each tube and incubated for 15 min at 37° C., briefly chilled on ice, and then immediately sedimented (8,000 g for 4 min at 4° C.) and washed with Buffer KRP, followed by centrifugation, twice. The resulting pellets were resuspended in 500 μL of Buffer KRP or Buffer K-KRP and incubated for 5, 10 or 15 min at 37° C., sedimented (8,000 g for 4 min at 4° C.), and washed with Buffer KRP. Resulting pellets were resuspended in 400 μL of 60% ACN containing 2.5 μM GABA-d6 as internal standard and stored at −80° C. until analysis.

Usually EC50 stands for the concentration at which the effect is half-maximal. In general, IC50 refers to the concentration needed to halve the response being measured.

T3 sequence (P34903 29-492): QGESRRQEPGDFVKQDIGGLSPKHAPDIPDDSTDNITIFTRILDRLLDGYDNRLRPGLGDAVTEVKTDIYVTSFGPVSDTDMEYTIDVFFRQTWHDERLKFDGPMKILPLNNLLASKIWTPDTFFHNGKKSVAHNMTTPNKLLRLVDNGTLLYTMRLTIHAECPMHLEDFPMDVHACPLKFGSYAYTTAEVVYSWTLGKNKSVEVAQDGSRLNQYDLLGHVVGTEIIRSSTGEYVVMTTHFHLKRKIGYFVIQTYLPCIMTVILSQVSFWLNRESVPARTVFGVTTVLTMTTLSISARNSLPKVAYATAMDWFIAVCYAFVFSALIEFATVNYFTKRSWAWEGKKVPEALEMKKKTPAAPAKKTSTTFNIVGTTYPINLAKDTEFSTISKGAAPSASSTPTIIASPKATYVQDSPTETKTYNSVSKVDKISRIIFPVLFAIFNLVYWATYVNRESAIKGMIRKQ
T3 sequence (P28472 26-473): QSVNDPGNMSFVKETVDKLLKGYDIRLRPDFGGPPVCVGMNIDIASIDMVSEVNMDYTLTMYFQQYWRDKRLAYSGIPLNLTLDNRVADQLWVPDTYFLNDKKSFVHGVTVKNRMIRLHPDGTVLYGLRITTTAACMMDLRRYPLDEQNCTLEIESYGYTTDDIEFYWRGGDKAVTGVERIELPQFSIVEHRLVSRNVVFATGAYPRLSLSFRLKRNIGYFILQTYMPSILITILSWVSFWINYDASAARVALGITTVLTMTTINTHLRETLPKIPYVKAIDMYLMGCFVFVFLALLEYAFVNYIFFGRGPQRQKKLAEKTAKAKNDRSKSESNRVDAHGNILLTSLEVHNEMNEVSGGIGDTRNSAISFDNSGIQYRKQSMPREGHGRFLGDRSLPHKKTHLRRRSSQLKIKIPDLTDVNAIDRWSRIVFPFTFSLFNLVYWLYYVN
T3 sequence (P18507 40-475): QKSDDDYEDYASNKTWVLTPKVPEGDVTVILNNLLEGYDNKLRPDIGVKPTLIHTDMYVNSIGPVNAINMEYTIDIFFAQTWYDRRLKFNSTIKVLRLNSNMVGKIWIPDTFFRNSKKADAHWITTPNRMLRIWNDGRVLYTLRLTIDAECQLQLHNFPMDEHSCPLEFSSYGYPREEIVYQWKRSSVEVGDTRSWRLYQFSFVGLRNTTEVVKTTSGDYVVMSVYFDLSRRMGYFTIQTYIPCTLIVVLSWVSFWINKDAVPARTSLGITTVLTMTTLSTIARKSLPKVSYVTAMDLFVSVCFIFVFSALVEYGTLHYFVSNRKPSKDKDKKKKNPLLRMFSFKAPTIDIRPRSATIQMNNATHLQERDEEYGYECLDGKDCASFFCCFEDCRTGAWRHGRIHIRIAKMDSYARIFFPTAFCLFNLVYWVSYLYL
T4 sequence (P47869 29-451): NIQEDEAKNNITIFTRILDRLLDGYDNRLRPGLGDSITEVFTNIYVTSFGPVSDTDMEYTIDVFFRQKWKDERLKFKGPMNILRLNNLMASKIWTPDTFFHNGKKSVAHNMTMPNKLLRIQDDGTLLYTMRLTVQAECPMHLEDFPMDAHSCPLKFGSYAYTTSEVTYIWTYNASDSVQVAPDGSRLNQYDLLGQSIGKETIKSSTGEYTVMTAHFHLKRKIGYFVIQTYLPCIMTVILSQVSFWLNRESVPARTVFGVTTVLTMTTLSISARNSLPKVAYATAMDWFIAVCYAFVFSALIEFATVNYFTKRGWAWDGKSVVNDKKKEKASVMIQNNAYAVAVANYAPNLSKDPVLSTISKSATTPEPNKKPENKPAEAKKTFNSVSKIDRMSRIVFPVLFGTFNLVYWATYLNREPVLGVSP
T4 sequence (P47870 25-512 limits assumed): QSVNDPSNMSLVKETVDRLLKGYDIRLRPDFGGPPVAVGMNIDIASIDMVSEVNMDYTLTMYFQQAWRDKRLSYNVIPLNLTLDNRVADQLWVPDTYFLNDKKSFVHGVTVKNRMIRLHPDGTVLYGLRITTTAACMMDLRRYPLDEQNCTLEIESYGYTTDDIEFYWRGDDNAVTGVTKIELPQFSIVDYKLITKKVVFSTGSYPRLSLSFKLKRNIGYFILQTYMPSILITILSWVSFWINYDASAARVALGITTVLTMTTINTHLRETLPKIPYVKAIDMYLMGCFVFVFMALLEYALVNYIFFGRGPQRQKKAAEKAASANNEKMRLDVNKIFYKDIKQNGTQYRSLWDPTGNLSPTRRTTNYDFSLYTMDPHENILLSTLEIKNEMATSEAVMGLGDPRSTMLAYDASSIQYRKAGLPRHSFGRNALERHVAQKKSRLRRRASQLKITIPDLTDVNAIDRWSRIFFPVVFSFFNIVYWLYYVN
T4 sequence (P18507 40-475): as the sequence (P18507 40-475) above
T5 sequence (P47869 29-451): as the sequence (P47869 29-451) above
T5 sequence (P28472 26-473): as the sequence (P28472 26-473) above
T5 sequence (P18507 40-475): as the sequence (P18507 40-475) above
T6 sequence (P34903 29-492): as the sequence (P34903 29-492) above
T6 sequence (P47870 25-512 limits assumed): as the sequence (P47870 25-512 limits assumed) above
T6 sequence (P18507 40-475): as the sequence (P18507 40-475) above
T1 sequence (P34903 29-492): as the sequence (P34903 29-492) above
T1 sequence (P18505 26-474): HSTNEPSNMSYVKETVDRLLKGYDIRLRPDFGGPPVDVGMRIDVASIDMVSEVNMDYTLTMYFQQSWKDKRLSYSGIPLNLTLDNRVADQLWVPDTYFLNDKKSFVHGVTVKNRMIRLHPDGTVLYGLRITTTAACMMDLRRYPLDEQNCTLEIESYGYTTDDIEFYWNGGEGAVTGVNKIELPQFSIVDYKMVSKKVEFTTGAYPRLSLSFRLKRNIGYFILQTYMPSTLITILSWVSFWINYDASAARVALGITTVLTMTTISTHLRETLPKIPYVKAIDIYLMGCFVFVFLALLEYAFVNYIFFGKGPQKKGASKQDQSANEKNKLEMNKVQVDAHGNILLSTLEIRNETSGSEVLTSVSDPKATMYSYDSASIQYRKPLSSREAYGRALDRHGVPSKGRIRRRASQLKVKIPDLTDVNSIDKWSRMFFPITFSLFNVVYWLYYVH
T1 sequence (P18507 40-475): as the sequence (P18507 40-475) above
T2 sequence (P48169 36-554): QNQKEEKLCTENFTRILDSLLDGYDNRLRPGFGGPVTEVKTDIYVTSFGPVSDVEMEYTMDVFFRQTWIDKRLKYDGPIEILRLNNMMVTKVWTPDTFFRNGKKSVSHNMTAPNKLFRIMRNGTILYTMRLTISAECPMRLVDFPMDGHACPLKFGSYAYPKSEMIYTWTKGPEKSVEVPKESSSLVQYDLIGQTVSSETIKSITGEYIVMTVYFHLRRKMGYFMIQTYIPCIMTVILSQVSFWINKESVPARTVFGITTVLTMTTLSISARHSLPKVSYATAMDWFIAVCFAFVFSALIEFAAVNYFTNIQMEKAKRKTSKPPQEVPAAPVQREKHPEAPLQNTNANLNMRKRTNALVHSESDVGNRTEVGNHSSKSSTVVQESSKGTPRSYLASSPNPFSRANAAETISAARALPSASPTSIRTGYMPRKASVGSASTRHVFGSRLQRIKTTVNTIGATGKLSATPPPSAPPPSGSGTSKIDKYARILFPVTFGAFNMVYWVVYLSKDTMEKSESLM
T2 sequence (P18505 26-474): as the sequence (P18505 26-474) above
T2 sequence (P18507 40-475): as the sequence (P18507 40-475) above

As for `C[C@@](N)(CCC(=O)O)C(=O)O` [(R)-2MeGlu, (R)-2-methylglutamic acid], in the experiment on GABAB nonsel, the “% of radioligand binding inhibition” value was found to be 5%. Also, the EC50 on GABAA α3β1γ2 stood at 742 µM; at GABAA α4β1γ2, 870 µM; at GABAA α3β3γ2, 959 µM; on GABAA α2β2γ2, 660 µM; at GABAA α2β3γ2 it was 622 µM; on GABAA α3β2γ2 it was 1040 µM. Besides, the “potassium-induced release from synaptosomes” value in experiment [1] is given as “not significantly altered by depolarization”.
On to `C[C@](N)(CCC(=O)O)C(=O)O` [(S)-2MeGlu, (S)-2-methylglutamic acid], for which the “% of radioligand binding inhibition” value in the experiment with GABAB nonsel turned out to be 5%. Further, the EC50 is 782 µM on GABAA α3β1γ2; 704 µM at GABAA α4β1γ2; 725 µM at GABAA α3β3γ2; 530 µM on GABAA α2β2γ2; 342 µM at GABAA α2β3γ2; 961 µM at GABAA α3β2γ2. Besides, the IC50 on GABAA α3β3γ2 (read-out: IC50, functional antagonist receptor assay) amounted to 978 µM. Also, in experiment [1], the “potassium-induced release from synaptosomes” value was “released upon depolarization”.

The values above are taken from patent US12589087B2, “Enantiomer selective action on neurotransmission” (The Board of Trustees of the Leland Stanford Junior …, priority 2021, dated 2026).
